Laboratory results from PMC8245078, “Development of novel benzofuran-isatin conjugates as potential antiproliferative agents with apoptosis inducing mechanism in Colon cancer” (Journal of Enzyme Inhibition and Medicinal Chemistry, 2021).

Columns and labels:
[1] = tested on: HT-29 colorectal cancer cell line; experiment: MTT cell viability assay; assay type: cell-based, human; settings: for inhibition of HT-29 cancer cells viability: 10 µM, 24 h, MTT
Procedure: (§1) In the present investigation a new set of benzofuran–isatin hybrids (5a–e and 7a–i) was synthesised to be evaluated for their potential anticancer activity towards two human colorectal cancer cell lines, SW-620 and HT-29. […] Both, SW-620 and HT-29 cells were treated with 10 µM of each compound for 24 h and the percent cell viability was calculated using MTT assay.
(§2) For this reason, compounds 5a and 5d were pursued for further studies. Starting with determination of IC50s and cytotoxic selectivity studies. Serial concentrations of compounds 5a and 5d were used to examine their impact on cell viability using MTT protocol. Results of concentration vs percent viability were charted, and the IC50 was calculated for SW-620 and HT-29 cell lines using Graph Pad prism 8 (Figure 4). […]
(§3) [(Ti-Tz)/Tz] x 100 for concentrations for which Ti<Tz […]
(§4) SW620 and HT29 colorectal cancer cell lines and HFF-1 fibroblast (ATCC, Rockville, USA) were used. HT29 cells were cultured and maintained in Dulbecco’s Modified Eagles Medium (DMEM) (GIBCO, by Thermo Fischer Scientific, NY, USA) supplemented with 10% fetal bovine serum (FBS), 100 units/mL penicillin, and 100 μg streptomycin. SW620 and HFF-1 cells were cultured in Roswell Park Memorial Institute medium (RPMI-1640) (GIBCO, by Thermo scientific, NY, USA) supplemented with 10% FBS and 1% penicillin and streptomycin (Napolitano et al., 2015). All cultures were incubated at 37 °C and humidified atmosphere of 5% […]
(§5) 2.3. Cell Viability Assay
(§6) The cytotoxicity effect of compounds on the colorectal cancer cell lines, SW620 and HT29 in addition to the normal human fibroblasts was measured by MTT (3-(4, 5-dimethylthiazol-2-yl)-2,5-diphenyltetrazolium bromide) (Sigma-Aldrich, St. Louis, MO, USA) as previously described. Briefly, cells were seeded in 96 well culture plates at 5000/well for HT29 and 10,000/well for SW620 for 24 h. Cells were then incubated with different compounds from WAG1 series (1-15) 24h at 37 °C and humidified 5% CO2 incubator. Freshly prepared 10 μl of 3-(4,5-dimethylthiazol-2-yl)-2,5-diphenyltetrazolium bromide (MTT 5 mM) solution were added to the cells and further incubated for 2 h. Thereafter, 100 μl of dimethyl sulfoxide (DMSO) were added in each well and the crystals were dissolved through careful pipetting. […]
VA, USA). The experiments were performed in triplicate for each condition. […]
(§7) The total protein concentration was evaluated by the colorimetric
(§8) Bradford protein assay (BIO-RAD inc, CA, USA) at 595 nm absorbance. Lysates were loaded in […]

[2] = tested on: SW-620 colorectal cancer cell line; experiment: MTT cell viability assay; assay type: cell-based, human; settings: Homo sapiens, SW-620, SW-620, MTT
Procedure: as §1, §2, §3, §4, §5
as §6, with “pipetting. In certain experiment, cells were treated different concentration of 5FU for 72 h. The absorbance of the product was measured at 540 nm using a Synergy™ 2 multi-mode microplate reader (Biotech, VA, USA). The experiments were performed in triplicate for each condition.” for “pipetting.”
as §7, §8

C=CCN1C(=O)/C(=N\NC(=O)c2oc3ccccc3c2C)c2ccccc21 [Compound 7c]
inhibition of HT-29 cancer cells viability [1]: > 50%

Cc1c(C(=O)N/N=C2\C(=O)N(Cc3ccc(F)cc3)c3ccccc32)oc2ccccc12 [Compound 7e]
inhibition of HT-29 cancer cells viability [1]: > 50%

Cc1c(C(=O)N/N=C2\C(=O)N(Cc3ccccc3)c3ccc(Br)cc32)oc2ccccc12 [Compound 7h]
inhibition of HT-29 cancer cells viability [1]: > 50%

Cc1c(C(=O)N/N=C2\C(=O)N(Cc3ccc(F)cc3)c3ccc(Br)cc32)oc2ccccc12 [Compound 7i]
inhibition of HT-29 cancer cells viability [1]: > 50%

CCc1c2c(nc3ccc(OC(=O)N4CCC(N5CCCCC5)CC4)cc13)-c1cc3c(c(=O)n1C2)COC(=O)[C@]3(O)CC [Irinotecan, reference compound]
IC50 [2]: 1000 nM | IC50 ([1]; Homo sapiens, HT-29, HT-29, MTT): 6.18 µM
